Patent US20260335388A1, “COMBINATION THERAPIES WITH ONCOLYTIC ADENOVIRUS AND TOPOISOMERASE I INHIBITORS OR PRODRUGS THEREOF” (priority 2022, published 2026)
Like-named read-outs stand apart in the source and are kept apart here.

What was measured:
Y79 cells = test: Viral production assay; assay type: cell-based; details: Y79 pre-infected with 500 MOI; topotecan 2 μM (FIG. 18F)
Experimental: Viral production assay. Y79 cells were infected with a concentration of 500 multiplicity of infection (MOI; i.e., transducing units of virus per cell), which was sufficient to achieve 80% to 100% infectivity. After 4 h, the cells were washed three times with PBS, fresh medium was added, and the cells were incubated with or without topotecan (2 μM). At time points 30, 48 and 72 h post-infection, the cell pellets were collected and exposed to three rounds of freeze-thaw lysis. Viral titers were determined in the pellets in triplicate, following an anti-hexon staining-based method in HEK293 cells (Cascallo et al., 2007).

[1] = system: HSJD-RBT-2 retinoblastoma cells; test: Antiproliferative activity (MTS), HSJD-RBT-2; assay type: cell-based; details: Homo sapiens
[2] = system: RBT-7 intracerebral tumors; test: Brain analyses at end of treatment, CNS-disseminated retinoblastoma; assay type: in vivo, mouse; details: end of treatment (FIG. 22G)
[3] = system: s.c. retinoblastomas (Y79 and RBT-7); test: VCN-01 genomes in s.c. xenografts (Y79 and RBT-7); assay type: in vivo, mouse
Experimental: To quantify genome copies of VCN-01 in cell cultures or mouse tissues, total DNA was extracted and real time quantitative polymerase chain reactions (RT-qPCR) was performed as described (Cascallo et al., “Systemic toxicity-efficacy profile of ICOVIR-5, a potent and selective oncolytic adenovirus based on the pRB pathway,” Mol Ther 2007; 15(9):1607-15).
Intratumoral infection of VCN-01. S.c. tumors were established in athymic nude mice. Upon xenograft engraftment, mice received one intratumoral injection of VCN-01, alone or combined with one cycle of topotecan, […], or hydroxyurea. At 5 and 15 days after VCN-01 inoculation, genome copies of VCN-01 were quantified in the tumors and immunostained for E1A and E2F-1.
To establish s.c. tumors, 10^6 retinoblastoma cells suspended in 25 µL matrigel (Corning, Glendale, AZ, USA) were injected in athymic nude mice. Upon xenograft engraftment (tumor volumes ranging 100-200 mm^3), treatments were started. Mice received VCN-01 (3×10^9 vp in 20 µL vehicle, single intratumoral injection at day 1), alone or combined with one cycle of topotecan (0.6 mg/kg, intraperitoneal -i.p.-, daily at days 1-5), […] (40 mg/kg, i.p, one single dose at day 1), or hydroxyurea (200 mg/kg, i.p., daily at days 1-5). […] In tumor homogenates, genome copies of VCN-01 were quantified. […]

E1a [4] = assay type: cell-based
E2F-1 and cyclin E1 = test: Immunoblot of E2F-1 and cyclin E1 in neuroblastoma and Ewing sarcoma cells; assay type: cell-based; details: in vitro, up to 48 h with topotecan (FIG. 24C)
Y79 xenografts = test: Ocular survival, Y79 intraocular xenografts (first study); assay type: in vivo, mouse; details: control 37 days; P vs control: combination 0.0005, topotecan 0.062, standard of care 0.674, VCN-01 1 (FIG. 20A)
Experimental: Antitumor activity in retinoblastoma. […] For ocular tumors, treatments were started at day 8 after inoculation (when tumors were appreciable by fundus examination).
In a first study, one dose of VCN-01 (3×10^8 vp in 2 μL vehicle, intravitreal, day 15), therapeutic schedules of topotecan or standard of care (SoC) retinoblastoma chemotherapy, or their combinations, was administered in the Y79 intraocular xenograft. For topotecan, mice received 0.6 mg/kg i.p. injections on days 8-12 and 29-33. […] 40 mg/kg, on days 8 and 29, and etoposide 6 mg/kg, on days 8-10 and 29-31.

RBT-7 xenografts = test: Ocular survival, RBT-7 intraocular xenografts; assay type: in vivo, mouse; details: control 35 days; combination P<0.0001 (FIG. 20C)
Experimental: Antitumor activity in retinoblastoma. For orthotopic intraocular engraftments 2×10^5 retinoblastoma cells were inoculated per eye, in 2 μL matrigel (Pascual-Pasto et al., 2016). To obtain s.c. xenografts 10^6 cells were injected in 25 μl matrigel. For ocular tumors, treatments were started at day 8 after inoculation (when tumors were appreciable by fundus examination). For s.c. tumors, treatments were started when volumes achieved 100-300 mm^3 (day 1). After treatments, the survivors were followed up until endpoint and the median survival of each group was calculated, as described previously (Mandigo et al., 2022; Rodríguez-García et al., 2015).
In a second experiment, the sequence of administration of one injection of VCN-01 and one 5-day cycle of topotecan was addressed. Mice with intraocular tumors (Y79 or RBT-7) received either topotecan 0.6 mg/kg, i.p. on days 8-12, one intravitreal injection of VCN-01 (3×10^8 vp) on day 8, or the combination of topotecan and VCN-01. Y79-bearing mice also received a switched treatment sequence, with VCN-01 on day 12, after the last dose of topotecan.

E1A [5] = assay type: in vivo, mouse

Compound: CC[C@@]1(O)C(=O)OCc2c1cc1n(c2=O)Cc2cc3c(CN(C)C)c(O)ccc3nc2-1 [Topotecan, topotecan]
- viral production (Y79 cells): did not increase viral production
- IC50 ([1]; read-out: IC50, Topotecan single agent): 7.38 nM
- IC50 ([1]; read-out: IC50, Topotecan with VCN-01 (10 MOI)): 50.7 nM
- expression of CDKN1A in brain homogenates [2]: highest expression of CDKN1A
- counts of viral genomes, 5 days ([3]; 5 days after intratumoral VCN-01 (FIG. 18G)): higher counts of viral genomes
- counts of viral genomes, 15 days ([3]; 15 days after intratumoral VCN-01 (FIG. 19B)): Different counts of viral genomes were not observed
- expression of VCN-01 proteins (E1a) (E1a [4]; 4 retinoblastoma models, VCN-01 50 MOI, drug added at 24 h, lysis at 48 h (FIG. 1)): enhanced expression of VCN-01 proteins
- E1A expression in infected cells (E1a [4]; VCN-01 infected cells treated with drug (FIG. 13B, FIG. 15A)): highly overexpressed
- expression of E2F-1 and cyclin E1 (E2F-1 and cyclin E1): overexpression of E2F-1 and cyclin E1
- median ocular survival (Y79 xenografts): 58 days
- median survival (RBT-7 xenografts): 39 days
- number of E1A-positive cells (E1A [5]; 5-day topotecan treatment, VCN-01-pretreated tumors, vs saline, […] or hydroxyurea (FIG. 18I)): highest number of E1A-positive cells
- level of E1A protein expression (E1A [5]; 5-day topotecan treatment, VCN-01-pretreated tumors, vs saline, […] or hydroxyurea (FIG. 18J)): highest level of E1A protein expression
- VCN-01 activity (E1A) in tumors (E1A [5]; systemic drug after intratumoral VCN-01, 5 or 15 days (FIGS. 4A-C)): enhances VCN-01 activity
